Experimental data published in the NIST ThermoML archive (doi:10.1016/j.jct.2017.06.001).

Assay: xn = mol fraction of the nth substance listed
Conditions: 100 kPa, Liquid; for speed of sound: Frequency=5 MHz, Pulse-echo method; for mass density: Vibrating tube method

OCCCCCO [1,5-pentanediol] + O
Conditions | mass density [kg/m3] | speed of sound [m/s]
313.15 K, x1 = 0.005 | 991.7 | –
313.15 K, x1 = 0.0101 | 991.52 | –
313.15 K, x1 = 0.0196 | 991.54 | –
313.15 K, x1 = 0.0251 | 991.82 | –
313.15 K, x1 = 0.0304 | 992.13 | –
313.15 K, x1 = 0.05 | 992.81 | –
313.15 K, x1 = 0.0769 | 993.24 | –
313.15 K, x1 = 0.1002 | 993.63 | –
313.15 K, x1 = 0.1124 | – | 1653.6
313.15 K, x1 = 0.1158 | – | 1654.3
313.15 K, x1 = 0.1193 | – | 1654.9
313.15 K, x1 = 0.1244 | – | 1655.7
313.15 K, x1 = 0.1287 | – | 1656.2
313.15 K, x1 = 0.1321 | – | 1656.6
313.15 K, x1 = 0.1361 | – | 1656.9
313.15 K, x1 = 0.1413 | – | 1657.3
313.15 K, x1 = 0.1438 | 993.61 | –
313.15 K, x1 = 0.1453 | – | 1657.5
313.15 K, x1 = 0.1493 | – | 1657.7
313.15 K, x1 = 0.1538 | – | 1657.8
313.15 K, x1 = 0.1569 | – | 1657.8
313.15 K, x1 = 0.1592 | – | 1657.9
313.15 K, x1 = 0.1624 | – | 1657.9
313.15 K, x1 = 0.1645 | – | 1657.9
313.15 K, x1 = 0.1677 | – | 1657.8
313.15 K, x1 = 0.1703 | – | 1657.8
313.15 K, x1 = 0.174 | – | 1657.7
313.15 K, x1 = 0.1785 | – | 1657.6
313.15 K, x1 = 0.1796 | – | 1657.5
313.15 K, x1 = 0.1845 | 993.02 | –
313.15 K, x1 = 0.1854 | – | 1657.3
313.15 K, x1 = 0.1882 | – | 1657.2
313.15 K, x1 = 0.1986 | – | 1656.6
313.15 K, x1 = 0.2089 | – | 1656
313.15 K, x1 = 0.2219 | – | 1655
313.15 K, x1 = 0.2336 | – | 1654.1
313.15 K, x1 = 0.2458 | – | 1653
313.15 K, x1 = 0.2503 | 991.87 | –
313.15 K, x1 = 0.2586 | – | 1651.8
313.15 K, x1 = 0.2742 | – | 1650.3
313.15 K, x1 = 0.2871 | – | 1649
313.15 K, x1 = 0.3 | 990.74 | –
313.15 K, x1 = 0.3037 | – | 1647.3
313.15 K, x1 = 0.3173 | – | 1645.8
313.15 K, x1 = 0.3343 | 989.99 | –
313.15 K, x1 = 0.3466 | – | 1642.6
313.15 K, x1 = 0.366 | – | 1640.3
313.15 K, x1 = 0.3864 | – | 1637.9
313.15 K, x1 = 0.401 | – | 1636.1
313.15 K, x1 = 0.4171 | 988.35 | –
313.15 K, x1 = 0.4198 | – | 1633.7
313.15 K, x1 = 0.4339 | – | 1631.8
313.15 K, x1 = 0.4516 | – | 1629.5
313.15 K, x1 = 0.454 | 987.5 | –
313.15 K, x1 = 0.4639 | – | 1627.8
313.15 K, x1 = 0.4723 | – | 1626.7
313.15 K, x1 = 0.4915 | – | 1624
313.15 K, x1 = 0.5003 | 986.6 | –
313.15 K, x1 = 0.5111 | – | 1621.3
313.15 K, x1 = 0.5315 | – | 1618.4
313.15 K, x1 = 0.5362 | 985.8 | –
313.15 K, x1 = 0.5529 | – | 1615.4
313.15 K, x1 = 0.5804 | – | 1611.5
313.15 K, x1 = 0.602 | – | 1608.5
313.15 K, x1 = 0.6163 | – | 1606.5
313.15 K, x1 = 0.6177 | 984.4 | –
313.15 K, x1 = 0.6349 | – | 1604
313.15 K, x1 = 0.6478 | 983.9 | –
313.15 K, x1 = 0.6533 | – | 1601.5
313.15 K, x1 = 0.6749 | – | 1598.6
313.15 K, x1 = 0.6932 | – | 1596.3
313.15 K, x1 = 0.7025 | 983 | –
313.15 K, x1 = 0.7095 | – | 1594.2
313.15 K, x1 = 0.7237 | – | 1592.4
313.15 K, x1 = 0.7448 | – | 1589.9
313.15 K, x1 = 0.7504 | 982.3 | –
313.15 K, x1 = 0.7666 | – | 1587.3
313.15 K, x1 = 0.7927 | 981.6 | –
313.15 K, x1 = 0.794 | – | 1584.1
313.15 K, x1 = 0.8188 | – | 1581.3
313.15 K, x1 = 0.8485 | – | 1578
313.15 K, x1 = 0.8605 | 980.4 | –
313.15 K, x1 = 0.875 | – | 1575.1
313.15 K, x1 = 0.9004 | 979.7 | –
313.15 K, x1 = 0.9027 | – | 1572.1
313.15 K, x1 = 0.9251 | – | 1569.5
313.15 K, x1 = 0.9471 | – | 1566.9
313.15 K, x1 = 0.9496 | 978.8 | –
313.15 K, x1 = 0.9652 | – | 1564.7
313.15 K, x1 = 0.9777 | – | 1563.1
313.15 K, x1 = 0.9877 | – | 1561.8
313.15 K, x1 = 0.9953 | – | 1560.8
313.15 K, x1 = 1 | 977.8 | 1560.2
318.15 K, x1 = 0.0005 | – | 1538
318.15 K, x1 = 0.0015 | – | 1540.6
318.15 K, x1 = 0.0027 | – | 1543.4
318.15 K, x1 = 0.0039 | – | 1546.4
318.15 K, x1 = 0.0049 | – | 1548.8
318.15 K, x1 = 0.0058 | – | 1550.9
318.15 K, x1 = 0.0069 | – | 1553.4
318.15 K, x1 = 0.008 | – | 1556
318.15 K, x1 = 0.0092 | – | 1558.5
318.15 K, x1 = 0.0106 | – | 1561.6
318.15 K, x1 = 0.0116 | – | 1563.7
318.15 K, x1 = 0.0129 | – | 1566.4
318.15 K, x1 = 0.0141 | – | 1568.7
318.15 K, x1 = 0.0154 | – | 1571.2
318.15 K, x1 = 0.0168 | – | 1573.9
318.15 K, x1 = 0.0184 | – | 1576.8
318.15 K, x1 = 0.0196 | – | 1578.9
318.15 K, x1 = 0.0215 | – | 1582.2
318.15 K, x1 = 0.0231 | – | 1584.8
318.15 K, x1 = 0.0246 | – | 1587.2
318.15 K, x1 = 0.0263 | – | 1589.8
318.15 K, x1 = 0.0283 | – | 1592.8
318.15 K, x1 = 0.0298 | – | 1594.9
318.15 K, x1 = 0.0316 | – | 1597.5
318.15 K, x1 = 0.0337 | – | 1600.2
318.15 K, x1 = 0.0357 | – | 1602.8
318.15 K, x1 = 0.0378 | – | 1605.4
318.15 K, x1 = 0.0403 | – | 1608.2
318.15 K, x1 = 0.043 | – | 1611.2
318.15 K, x1 = 0.0456 | – | 1613.9
318.15 K, x1 = 0.0487 | – | 1616.8
318.15 K, x1 = 0.0503 | – | 1618.2
318.15 K, x1 = 0.0516 | – | 1619.4
318.15 K, x1 = 0.0548 | – | 1622.1
318.15 K, x1 = 0.0584 | – | 1624.9
318.15 K, x1 = 0.0657 | – | 1629.8
318.15 K, x1 = 0.0682 | – | 1631.3
318.15 K, x1 = 0.072 | – | 1633.3
318.15 K, x1 = 0.0763 | – | 1635.4
318.15 K, x1 = 0.0796 | – | 1636.9
318.15 K, x1 = 0.0848 | – | 1639
318.15 K, x1 = 0.0893 | – | 1640.5
318.15 K, x1 = 0.0963 | – | 1642.5
318.15 K, x1 = 0.1022 | – | 1643.9
318.15 K, x1 = 0.1063 | – | 1644.7
318.15 K, x1 = 0.1107 | – | 1645.4
318.15 K, x1 = 0.1147 | – | 1646
318.15 K, x1 = 0.1186 | – | 1646.4
318.15 K, x1 = 0.1227 | – | 1646.8
318.15 K, x1 = 0.1267 | – | 1647.1
318.15 K, x1 = 0.1324 | – | 1647.4
318.15 K, x1 = 0.138 | – | 1647.6
318.15 K, x1 = 0.1421 | – | 1647.7
318.15 K, x1 = 0.1467 | – | 1647.7
318.15 K, x1 = 0.151 | – | 1647.7
318.15 K, x1 = 0.1559 | – | 1647.6
318.15 K, x1 = 0.1604 | – | 1647.4
318.15 K, x1 = 0.1642 | – | 1647.3
318.15 K, x1 = 0.1668 | – | 1647.1
318.15 K, x1 = 0.17 | – | 1647
318.15 K, x1 = 0.1746 | – | 1646.7
318.15 K, x1 = 0.1759 | – | 1646.6
318.15 K, x1 = 0.1805 | – | 1646.3
318.15 K, x1 = 0.1834 | – | 1646.1
